Consider 2 compounds from ChEMBL document CHEMBL1155961, “Novel 4-aryl-pyrido[1,2-c]pyrimidines with dual SSRI and 5-HT1A activity: part 2” (Eur J Med Chem, 2009).

Assay [1] deals with Mus musculus. Put plainly: Effect on hypothermia in Swiss albino mouse assessed as change in rectal body temperature at 20 mg/kg, ip after 120 mins by inducible hypothermia test. The assay is classed as functional, organism-based. The arrangement: dose 20 mg/kg.
Assay [2] concerns Mus musculus. Kind of assay: Effect on hypothermia in Swiss albino mouse assessed as change in rectal body temperature at 20 mg/kg, ip after 90 mins by inducible hypothermia test. The arrangement: dose 20 mg/kg. The assay is classed as functional, organism-based.
The test system of assay [3] is Mus musculus. Put plainly: Effect on hypothermia in Swiss albino mouse assessed as change in rectal body temperature at 20 mg/kg, ip after 30 mins by inducible hypothermia test. The assay is classed as functional, organism-based. The arrangement: dose 20 mg/kg.
The subject of assay [4] is Mus musculus. Kind of assay: Effect on hypothermia in Swiss albino mouse assessed as change in rectal body temperature at 20 mg/kg, ip after 60 mins by inducible hypothermia test. The class given is functional, organism-based. The arrangement: dose 20 mg/kg.
For assay [5], the system named is Mus musculus. Put plainly: Effect on hypothermia in Swiss albino mouse assessed as change in rectal body temperature at 10 mg/kg, ip after 120 mins by inducible hypothermia test. The assay is classed as functional, organism-based. The arrangement: dose 10 mg/kg.
For assay [6], the system named is Mus musculus. Kind of assay: Effect on hypothermia in Swiss albino mouse assessed as change in rectal body temperature at 10 mg/kg, ip after 90 mins by inducible hypothermia test. The assay is classed as functional, organism-based. The arrangement: dose 10 mg/kg.
For assay [7], the system named is Mus musculus. Kind of assay: Effect on hypothermia in Swiss albino mouse assessed as change in rectal body temperature at 10 mg/kg, ip after 60 mins by inducible hypothermia test. The assay is classed as functional, organism-based. The arrangement: dose 10 mg/kg.
The subject of assay [8] is Mus musculus. Put plainly: Effect on hypothermia in Swiss albino mouse assessed as change in rectal body temperature at 10 mg/kg, ip after 30 mins by inducible hypothermia test. The assay is classed as functional, organism-based. The arrangement: dose 10 mg/kg.
Assay [9] deals with Mus musculus. Kind of assay: Effect on hypothermia in Swiss albino mouse assessed as change in rectal body temperature at 5 mg/kg, ip after 120 mins by inducible hypothermia test. The assay is classed as functional, organism-based. The arrangement: dose 5 mg/kg.
Assay [10] concerns Mus musculus. Put plainly: Effect on hypothermia in Swiss albino mouse assessed as change in rectal body temperature at 5 mg/kg, ip after 90 mins by inducible hypothermia test. The class given is functional, organism-based. The arrangement: dose 5 mg/kg.
The test system of assay [11] is Mus musculus. Put plainly: Effect on hypothermia in Swiss albino mouse assessed as change in rectal body temperature at 5 mg/kg, ip after 60 mins by inducible hypothermia test. The assay is classed as functional, organism-based. The arrangement: dose 5 mg/kg.
The test system of assay [12] is Mus musculus. Kind of assay: Effect on hypothermia in Swiss albino mouse assessed as change in rectal body temperature at 5 mg/kg, ip after 30 mins by inducible hypothermia test. The assay is classed as functional, organism-based. The arrangement: dose 5 mg/kg.
In assay [13] the target is T1, 5-hydroxytryptamine receptor 1A (Rattus norvegicus, UniProt P19327).
T1 sequence (P19327 whole entry): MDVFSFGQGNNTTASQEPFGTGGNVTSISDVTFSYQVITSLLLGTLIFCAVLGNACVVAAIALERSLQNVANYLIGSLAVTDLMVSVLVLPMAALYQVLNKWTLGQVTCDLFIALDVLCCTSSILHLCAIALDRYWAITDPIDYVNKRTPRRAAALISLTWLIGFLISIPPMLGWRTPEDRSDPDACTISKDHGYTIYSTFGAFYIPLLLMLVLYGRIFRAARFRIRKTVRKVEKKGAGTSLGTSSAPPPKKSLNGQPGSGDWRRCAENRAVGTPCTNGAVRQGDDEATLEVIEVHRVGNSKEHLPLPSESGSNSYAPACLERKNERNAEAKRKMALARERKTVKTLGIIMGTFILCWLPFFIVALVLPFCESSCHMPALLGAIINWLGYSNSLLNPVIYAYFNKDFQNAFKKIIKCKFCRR
Put plainly: Displacement of [3H]8-OH-DPAT from 5-HT1A receptor in rat hippocampus. The class given is tissue-based. In general terms: Displacement assays read how much labelled ligand stays bound in the presence of the test substance.

Assay [14] concerns the target Sodium-dependent serotonin transporter (Rattus norvegicus, UniProt P31652). Put plainly: Displacement of [3H]citalopram from SERT in rat cerebral cortex by liquid scintillation counting. The assay is classed as tissue-based.
The test system of assay [15] is Mus musculus. Kind of assay: Antidepressant activity in Swiss albino mouse assessed as reduction of immobility time at 10 mg/kg, ip administered 30 mins before test measured 6 mins test session after 2 mins habituation period by forced swimming test. The assay is classed as functional.
The test system of assay [16] is Mus musculus. Kind of assay: Antidepressant activity in Swiss albino mouse assessed as reduction of immobility time at 20 mg/kg, ip administered 30 mins before test measured 6 mins test session after 2 mins habituation period by forced swimming test. The assay is classed as functional. The arrangement: scale not given: the % may be the effect or the level left. The conditions noted are these: route intraperitoneal.

Assay [17] concerns Mus musculus. Kind of assay: Effect on spontaneous locomotor activity in Swiss albino mouse assessed as number of light-beam crossings in actiometers pretreated for 30 mins at 20 mg/kg, ip measured during 30 mins post drug dose. The class given is functional. The conditions noted are these: route intraperitoneal.
Assay [18] has as its system Mus musculus. Kind of assay: Effect on spontaneous locomotor activity in Swiss albino mouse assessed as number of light-beam crossings in actiometers pretreated for 30 mins at 20 mg/kg, ip measured during 6 mins post drug dose. The class given is functional. The following applies: route intraperitoneal.
In assay [19] the test system is Mus musculus. Kind of assay: Effect on hypothermia in Swiss albino mouse assessed as change in rectal body temperature at 20 mg/kg, ip dosed 15 mins after 0.1 mg/kg, sc WAY 100635 challenge measured after 60 mins by inducible hypothermia test. The class given is functional, organism-based.
Assay [20] deals with Mus musculus. Kind of assay: Effect on hypothermia in Swiss albino mouse assessed as change in rectal body temperature at 20 mg/kg, ip dosed 15 mins after 0.1 mg/kg, sc WAY 100635 challenge measured after 30 mins by inducible hypothermia test. The class given is functional, organism-based.
The subject of assay [21] is Mus musculus. Put plainly: Antidepressant activity in Swiss albino mouse assessed as reduction of immobility time at 2 mg/kg, sc administered 30 mins before test measured 6 mins test session after 2 mins habituation period by forced swimming test. The class given is functional. The arrangement: scale not given: the % may be the effect or the level left. The following applies: route subcutaneous.

Assay [22] deals with Mus musculus. Put plainly: Antidepressant activity in Swiss albino mouse assessed as reduction of immobility time at 1 mg/kg, sc administered 30 mins before test measured 6 mins test session after 2 mins habituation period by forced swimming test. The class given is functional. The arrangement: scale not given: the % may be the effect or the level left. The following applies: route subcutaneous.

Calls of active or inactive are those of the source. The calls are words filed in the database; no cut-off is given here.

Chain of Sodium-dependent serotonin transporter (P31652 whole entry): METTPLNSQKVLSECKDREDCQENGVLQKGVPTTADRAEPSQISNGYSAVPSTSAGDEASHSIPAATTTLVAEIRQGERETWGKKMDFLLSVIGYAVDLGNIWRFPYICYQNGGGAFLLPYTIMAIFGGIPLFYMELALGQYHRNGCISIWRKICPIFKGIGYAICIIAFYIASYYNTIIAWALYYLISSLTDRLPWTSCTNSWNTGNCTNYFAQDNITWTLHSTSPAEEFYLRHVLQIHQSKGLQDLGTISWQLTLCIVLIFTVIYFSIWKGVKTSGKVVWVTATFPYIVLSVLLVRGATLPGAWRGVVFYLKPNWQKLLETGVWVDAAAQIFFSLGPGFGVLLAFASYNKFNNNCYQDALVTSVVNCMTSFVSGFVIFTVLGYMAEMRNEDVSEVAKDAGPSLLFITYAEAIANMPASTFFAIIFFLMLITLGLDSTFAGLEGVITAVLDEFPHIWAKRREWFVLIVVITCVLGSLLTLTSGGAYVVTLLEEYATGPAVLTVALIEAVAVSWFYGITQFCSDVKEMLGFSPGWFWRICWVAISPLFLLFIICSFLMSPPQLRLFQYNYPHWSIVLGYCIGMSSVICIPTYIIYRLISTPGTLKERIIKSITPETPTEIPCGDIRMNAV

As for `COc1ccc2[nH]cc(C3CCN(CCCCn4c(=O)c(-c5ccccc5F)c5n(c4=O)CCCC5)CC3)c2c1`, the deltaT with Mus musculus [1] was -0.7 °C; in the assay with Mus musculus [2], -0.8 °C; in the assay with Mus musculus [3], -1.2 °C; with Mus musculus [4], -1 °C; with Mus musculus [5], -0.4 °C; in the assay with Mus musculus [6], -0.6 °C. The deltaT is -0.8 °C in the assay with Mus musculus [7]; -0.7 °C in the assay with Mus musculus [8]; -0.3 °C in the assay on Mus musculus [9]; -0.4 °C in the assay on Mus musculus [10]; -0.6 °C with Mus musculus [11]; -0.7 °C in the assay on Mus musculus [12]. Also, the deltaT in the assay on Mus musculus [19] was -0.4 °C; in the assay on Mus musculus [20], -0.5 °C. Moreover, the Ki in assay [13] is 45.6 nM; in [14], 184 nM. In the assay with Mus musculus [15], the result was inactive. Also, the figures for the Activity with Mus musculus [16], in the assay with Mus musculus [17] and with Mus musculus [18] were 26%, 520 and 272, respectively.
Turning to `CCCN(CCC)C1CCc2cccc(O)c2C1` (configuration not stated) [8-OH-DPAT], the Activity in the assay with Mus musculus [21] is given as 57%; in the assay with Mus musculus [22], 45%.

For orientation: Ki means a dissociation constant, usually derived from enzyme kinetics or from competition with a known ligand.
